{
  "source": "patent US20240308992A1",
  "about": "(Biopolar Youtang(Guangdong) Pharmaceutical Co., Ltd., priority 2021, published 2024)",
  "target": "T1, Drak2 (Homo sapiens, UniProt O94768)",
  "T1 sequence (O94768 1-372)": "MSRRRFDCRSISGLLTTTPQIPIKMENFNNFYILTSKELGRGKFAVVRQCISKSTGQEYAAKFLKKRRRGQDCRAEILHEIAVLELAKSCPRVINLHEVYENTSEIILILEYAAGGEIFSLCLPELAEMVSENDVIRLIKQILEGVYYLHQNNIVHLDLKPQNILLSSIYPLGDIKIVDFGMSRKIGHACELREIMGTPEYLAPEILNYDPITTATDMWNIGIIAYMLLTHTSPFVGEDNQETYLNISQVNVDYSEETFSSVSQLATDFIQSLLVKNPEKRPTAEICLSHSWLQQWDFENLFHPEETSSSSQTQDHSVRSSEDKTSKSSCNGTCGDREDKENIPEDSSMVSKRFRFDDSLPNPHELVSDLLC",
  "test": "Drak2 activity test, ADP-Glo kinase assay (Promega)",
  "type": "biochemical",
  "conditions": "inhibition of Drak2 kinase activity, 2 h room temperature, activity range classes, read-out: IC50_Drak2",
  "data": [
    {"smiles": "COc1cc(-c2cncc(-c3cc(NC(C)=O)cs3)n2)ccc1C(=O)Nc1nnn[nH]1", "note": "[Example B10, 2-methoxy-4-(6-(4-acetamidothiophen-2-yl)pyrazin-2-yl)-N-(1H-tetrazol-5-yl)benzamide]", "values": [
      {"measurement": "IC50", "value": "101 to 1000", "unit": "nM"}
    ]},
    {"smiles": "CCC(=O)Nc1csc(-c2cncc(-c3ccc(C(=O)Nc4nnn[nH]4)c(OC)c3)n2)c1", "note": "[Example B11, 2-methoxy-4-(6-(4-propionamidothiophen-2-yl)pyrazin-2-yl)-N-(1H-tetrazol-5-yl)benzamide]", "values": [
      {"measurement": "IC50", "value": "101 to 1000", "unit": "nM"}
    ]},
    {"smiles": "COc1cc(-c2cncc(-c3cc(NC(=O)CC4CC4)cs3)n2)ccc1C(=O)Nc1nnn[nH]1", "note": "[Example B12, 2-methoxy-4-(6-(4-(2-cyclopropylacetamido)thiophen-2-yl)pyrazin-2-yl)-N-(1H-tetrazol-5-yl)benzamide]", "values": [
      {"measurement": "IC50", "value": "101 to 1000", "unit": "nM"}
    ]},
    {"smiles": "COc1cc(-c2cncc(-c3cc(NC(=O)Cc4ccco4)cs3)n2)ccc1C(=O)Nc1nnn[nH]1", "note": "[Example B13, 2-methoxy-4-(6-(4-(2-(furan-2-yl)acetamido)thiophen-2-yl)pyrazin-2-yl)-N-(1H-tetrazol-5-yl)benzamide]", "values": [
      {"measurement": "IC50", "value": "101 to 1000", "unit": "nM"}
    ]},
    {"smiles": "COc1cc(-c2cncc(-c3cc(NC(=O)CC4CCCCC4)cs3)n2)ccc1C(=O)Nc1nnn[nH]1", "note": "[Example B14, 2-methoxy-4-(6-(4-(2-cyclohexylacetamido)thiophen-2-yl)pyrazin-2-yl)-N-(1H-tetrazol-5-yl)benzamide]", "values": [
      {"measurement": "IC50", "value": "101 to 1000", "unit": "nM"}
    ]},
    {"smiles": "CCCCC(=O)Nc1csc(-c2cncc(-c3ccc(C(=O)Nc4nnnn4C)c(OC)c3)n2)c1", "note": "[Example B15, 2-methoxy-4-(6-(4-pentanamidothiophen-2-yl)pyrazin-2-yl)-N-(1-methyl-1H-tetrazol-5-yl)-benzamide]", "values": [
      {"measurement": "IC50", "value": "11 to 100", "unit": "nM"}
    ]},
    {"smiles": "CCCCCC(=O)Nc1csc(-c2cncc(-c3ccc(C(=O)Nc4nnn[nH]4)c(OC)c3)n2)c1", "note": "[Example B16, 2-methoxy-4-(6-(4-hexanamidothiophen-2-yl)pyrazin-2-yl)-N-(1H-tetrazol-5-yl)benzamide]", "values": [
      {"measurement": "IC50", "value": "101 to 1000", "unit": "nM"}
    ]},
    {"smiles": "CCCCCCC(=O)Nc1csc(-c2cncc(-c3ccc(C(=O)Nc4nnn[nH]4)c(OC)c3)n2)c1", "note": "[Example B17, 2-methoxy-4-(6-(4-heptanamidothiophen-2-yl)pyrazin-2-yl)-N-(1H-tetrazol-5-yl)benzamide]", "values": [
      {"measurement": "IC50", "value": "1000 to 10000", "unit": "nM"}
    ]},
    {"smiles": "CCCCCCCC(=O)Nc1csc(-c2cncc(-c3ccc(C(=O)Nc4nnn[nH]4)c(OC)c3)n2)c1", "note": "[Example B18, 2-methoxy-4-(6-(4-octanamidothiophen-2-yl)pyrazin-2-yl)-N-(1H-tetrazol-5-yl)benzamide]", "values": [
      {"measurement": "IC50", "value": "> 10000", "unit": "nM"}
    ]},
    {"smiles": "CCCCCCCCC(=O)Nc1csc(-c2cncc(-c3ccc(C(=O)Nc4nnn[nH]4)c(OC)c3)n2)c1", "note": "[Example B19, 2-methoxy-4-(6-(4-nonanamidothiophen-2-yl)pyrazin-2-yl)-N-(1H-tetrazol-5-yl)benzamide]", "values": [
      {"measurement": "IC50", "value": "> 10000", "unit": "nM"}
    ]},
    {"smiles": "CCCCCCCCCC(=O)Nc1csc(-c2cncc(-c3ccc(C(=O)Nc4nnn[nH]4)c(OC)c3)n2)c1", "note": "[Example B20, 2-methoxy-4-(6-(4-decanamidothiophen-2-yl)pyrazin-2-yl)-N-(1H-tetrazol-5-yl)benzamide]", "values": [
      {"measurement": "IC50", "value": "> 10000", "unit": "nM"}
    ]},
    {"smiles": "CCCCCCCCCCC(=O)Nc1csc(-c2cncc(-c3ccc(C(=O)Nc4nnn[nH]4)c(OC)c3)n2)c1", "note": "[Example B21, 2-methoxy-4-(6-(4-undecanamidothiophen-2-yl)pyrazin-2-yl)-N-(1H-tetrazol-5-yl)benzamide]", "values": [
      {"measurement": "IC50", "value": "> 10000", "unit": "nM"}
    ]},
    {"smiles": "CCCCC(=O)Nc1csc(-c2cncc(-c3ccc(C(=O)Nc4cn(C)c(C(=O)OC)n4)c(OC)c3)n2)c1", "note": "[Example B22, methyl 4-(2-methoxy-4-(6-(4-pentanamidothiophen-2-yl)pyrazin-2-yl)benzamido)-1-methyl-1H-imidazole-2-carboxylate]", "values": [
      {"measurement": "IC50", "value": "101 to 1000", "unit": "nM"}
    ]},
    {"smiles": "CCCCC(=O)Nc1csc(-c2cncc(-c3ccc(C(=O)Nc4nnco4)c(OC)c3)n2)c1", "note": "[Example B23, 2-methoxy-4-(6-(4-pentanamidothiophen-2-yl)pyrazin-2-yl)-N-(1,3,4-oxadiazol-2-yl)benzamide]", "values": [
      {"measurement": "IC50", "value": "11 to 100", "unit": "nM"}
    ]},
    {"smiles": "CCCCC(=O)Nc1csc(-c2cncc(-c3ccc(C(=O)Nc4nncs4)c(OC)c3)n2)c1", "note": "[Example B24, 2-methoxy-4-(6-(4-pentanamidothiophen-2-yl)pyrazin-2-yl)-N-(1,3,4-thiadiazol-2-yl)benzamide]", "values": [
      {"measurement": "IC50", "value": "1000 to 10000", "unit": "nM"}
    ]},
    {"smiles": "COc1cc(-c2cncc(-c3cc(NC(=O)CC4CC4)cs3)n2)ccc1C(=O)Nc1nnnn1C", "note": "[Example B25, 2-methoxy-4-(6-(4-(2-cyclopropylacetamido)thiophen-2-yl)pyrazin-2-yl)-N-(1-methyl-1H-tetrazol-5-yl)benzamide]", "values": [
      {"measurement": "IC50", "value": "11 to 100", "unit": "nM"}
    ]},
    {"smiles": "COc1cc(-c2cncc(-c3cc(NC(=O)CC4CCC4)cs3)n2)ccc1C(=O)Nc1nnnn1C", "note": "[Example B26, 2-methoxy-4-(6-(4-(2-cyclobutylacetamido)thiophen-2-yl)pyrazin-2-yl)-N-(1-methyl-1H-tetrazol-5-yl)benzamide]", "values": [
      {"measurement": "IC50", "value": "11 to 100", "unit": "nM"}
    ]},
    {"smiles": "COc1cc(-c2cncc(-c3cc(NC(=O)CC4CCCC4)cs3)n2)ccc1C(=O)Nc1nnnn1C", "note": "[Example B27, 2-methoxy-4-(6-(4-(2-cyclopentylacetamido)thiophen-2-yl)pyrazin-2-yl)-N-(1-methyl-1H-tetrazol-5-yl)benzamide]", "values": [
      {"measurement": "IC50", "value": "11 to 100", "unit": "nM"}
    ]},
    {"smiles": "COc1cc(-c2cncc(-c3cc(NC(=O)CC4CCCCC4)cs3)n2)ccc1C(=O)Nc1nnnn1C", "note": "[Example B28, 2-methoxy-4-(6-(4-(2-cyclohexylacetamido)thiophen-2-yl)pyrazin-2-yl)-N-(1-methyl-1H-tetrazol-5-yl)benzamide]", "values": [
      {"measurement": "IC50", "value": "101 to 1000", "unit": "nM"}
    ]},
    {"smiles": "CCCCC(=O)Nc1csc(-c2cncc(-c3ccc(C(=O)N4CCOCC4)c(OC)c3)n2)c1", "note": "[Example B29, N-(5-(6-(3-methoxy-4-(morpholine-4-carbonyl)phenyl)pyrazin-2-yl)thiophen-3-yl)pentanamide]", "values": [
      {"measurement": "IC50", "value": "11 to 100", "unit": "nM"}
    ]},
    {"smiles": "CCCCC(=O)Nc1csc(-c2cncc(-c3ccc(CN4CCOCC4)c(OC)c3)n2)c1", "note": "[Example B30, N-(5-(6-(3-methoxy-4-(morpholinomethyl)phenyl)pyrazin-2-yl)thiophen-3-yl)pentanamide]", "values": [
      {"measurement": "IC50", "value": "101 to 1000", "unit": "nM"}
    ]},
    {"smiles": "COc1cc(-c2cncc(-c3cc(NC(=O)CC4CC4)cs3)n2)ccc1C(=O)N1CCOCC1", "note": "[Example B31, 2-cyclopropyl-N-(5-(6-(3-methoxy-4-(morpholine-4-carbonyl)phenyl)pyrazin-2-yl)thiophen-3-yl)acetamide]", "values": [
      {"measurement": "IC50", "value": "11 to 100", "unit": "nM"}
    ]},
    {"smiles": "COc1cc(-c2cncc(-c3cc(NC(=O)CC4CCC4)cs3)n2)ccc1C(=O)N1CCOCC1", "note": "[Example B32, 2-cyclobutyl-N-(5-(6-(3-methoxy-4-(morpholine-4-carbonyl)phenyl)pyrazin-2-yl)thiophen-3-yl)acetamide]", "values": [
      {"measurement": "IC50", "value": "11 to 100", "unit": "nM"}
    ]},
    {"smiles": "COc1cc(-c2cncc(-c3cc(NC(=O)CC4CCCC4)cs3)n2)ccc1C(=O)N1CCOCC1", "note": "[Example B33, 2-cyclopentyl-N-(5-(6-(3-methoxy-4-(morpholine-4-carbonyl)phenyl)pyrazin-2-yl)thiophen-3-yl)acetamide]", "values": [
      {"measurement": "IC50", "value": "11 to 100", "unit": "nM"}
    ]},
    {"smiles": "COc1cc(-c2cncc(-c3cc(NC(=O)CC4CC4)cs3)n2)ccc1CN1CCOCC1", "note": "[Example B34, 2-cyclopropyl-N-(5-(6-(3-methoxy-4-(morpholinomethyl)phenyl)pyrazin-2-yl)thiophen-3-yl)acetamide]", "values": [
      {"measurement": "IC50", "value": "101 to 1000", "unit": "nM"}
    ]},
    {"smiles": "COc1cc(-c2cncc(-c3cc(NC(=O)CC4CCC4)cs3)n2)ccc1CN1CCOCC1", "note": "[Example B35, 2-cyclobutyl-N-(5-(6-(3-methoxy-4-(morpholinomethyl)phenyl)pyrazin-2-yl)thiophen-3-yl)acetamide]", "values": [
      {"measurement": "IC50", "value": "101 to 1000", "unit": "nM"}
    ]}
  ]
}
